Reference: patent US9409893B2, “Heteroaryl derivatives and uses thereof” (Jacobus Pharmaceutical Company, Inc., priority 2012, dated 2016)
Where a name gives a salt, the structure may show the parent alone. Read-outs that look alike come from different tables or passages of the source.

Experiments:
[1] = tested on: P. falciparum strain W2; assay: [3H]-hypoxanthine growth inhibition assay, P. falciparum W2; type: cell-based; settings: Plasmodium falciparum
Procedure: (§1) The potential for antimalarial activity against Plasmodium falciparum was determined by measuring the incorporation of tritiated hypoxanthine into parasitized red blood cells.
(§2) Stock solutions of the test compounds and the reference drug chloroquine (CQ) (Sigma Chemicals C-6628, Lot #059H0919) were prepared in silanized glass vials with AquaSil™ (Pierce, USA) to minimize absorption of the compounds to glassware. All test compounds were dissolved in DMSO (Sigma Cat No. #D8418) to 1 mM concentration, whereas CQ was dissolved in 50% methanol at a concentration of 1.6 mg/ml (base). Stock solutions were stored at −20° C.
(§3) The P. falciparum laboratory adapted strains utilized in this project (Table 1) were in vitro cultured and routinely maintained in RPMI-1640-LPLF complete medium, which contained low concentrations of para-amino benzoic acid (0.0005 mg/L) and folic acid (0.01 mg/L).
(§4) The low concentration of folic acid in RPMI-1640-LPLF prevents inhibition of the compound if its activity targets the parasite's folate metabolic pathway. Parasites were cultured in human red blood cells (RBCs) in vitro at 37° C. in special gas mixture (5% O2, 5% CO2 and 90% N2) as described Trager and Jensen (1979 Science 193:673-675).
(§5) Base cultivation medium consisted of 10.4 g/L RPMI-1640-LPLF powder (Gibco BRL), 5.97 g/L HEPES buffer (MP Biomedicals, USA), 2.0 g/L D-glucose (BDH chemicals, Australia), 0.05 g/L hypoxanthine (Sigma, USA) and 40 mg/L gentamycin (Pfizer, Australia). The pH of the medium was adjusted to 6.9 and the solution was filtered using 0.2 μm pore size (AcroCap, Gelman Science, USA). Complete medium was prepared by adding sodium bicarbonate solution (final concentration, 0.21%) and drug-free heat-inactivated human plasma, pooled from various blood types, obtained from the Australian Red Cross Blood Service (Brisbane) (final concentration, 10%) to the base RPMI-1640-LPLF. For [^3H]-hypoxanthine inhibition growth assay, RPMI-1640-LPLF complete medium which lacked [^3H]-hypoxanthine ([^3H]-RPMI-1640-LPLF) was used to prevent uptake of hypoxanthine by parasites, as radioactive hypoxanthine uptake is measured as a surrogate marker of growth. All complete medium was used within three days of preparation. See DE (Para) SOP 002 for methodology.
(§6) Red blood cells (RBC) were required for P. falciparum parasites to proliferate in vitro. 0 (Rh+) type blood was obtained from the Australian Red Cross Blood Service. The RBC were washed twice in phosphate-buffered saline (PBS) and once in [^3H]-RPMI-1640-LPLF complete medium by centrifugation at 1,500×g for 5 min. Following the final wash, the haematocrit was measured as the percent of RBC to total culture volume. The haematocrit was adjusted to 50% by removing or adding [^3H]-RPMI-LPLF complete medium. See DE (Para) SOP 003 for methodology.
(§7) All P. falciparum strains were grown in RPMI-1640-LPLF complete medium at 4% haematocrit and 1% to 8% parasitaemia at 37° C. in sealed flasks in a gas mixture of 5% O2, 5% CO2 and 90% N2 (BOC Gases, Brisbane, Australia). For drug susceptibility assays cultures were routinely synchronized when the majority of parasites (>85%) were at early trophozoite (ring) stage. Synchronization involved removing the more mature erythrocytic parasite stages by lysis, resulting in the retention only of early trophozoite (ring) stages. Synchronization was performed by re-suspending the infected red blood cell (iRBC) pellet in 5 to 10 times its volume of 5% D-sorbitol (Bacto Laboratories Pty. Ltd., Australia) for 5 min (Lambros and Vanderberg, 1979 J Parasitol 65: 418-420). The mixture was centrifuged (1,500 rpm for 5 min) and the supernatant removed. The iRBC were washed twice using PBS buffer and once using [^3H]-RPMI-LPLF plain medium. Following synchronization, a new culture was prepared with an initial parasitaemia of 1% in RPMI-LPLF complete medium. See DE (Para) SOP 008 for methodology.

[2] = tested on: P. falciparum strain D6; assay: [3H]-hypoxanthine growth inhibition assay, P. falciparum D6; type: cell-based; settings: Plasmodium falciparum
Procedure: as §1, §2, §3, §4, §5, §6, §7

[3] = P. falciparum W2 (resistant to chloroquine and pyrimethamine), [3H]-hypoxanthine incorporation, read-out: W2 IC50
[4] = P. falciparum D6 (sensitive to chloroquine and pyrimethamine), [3H]-hypoxanthine incorporation, read-out: D6 IC50

IC50 [1, 3]	IC50 [2, 4]	SMILES	IC50 ([1]; W2, read-out: W2 IC50)	IC50 ([2]; D6, read-out: D6 IC50)
0.126 µM	0.221 µM	CC(C)(C)NCc1cc(F)cc(-c2ccc(C(F)(F)F)nc2)c1O [Example 68, 2-((tert-Butylamino)methyl)-4-fluoro-6-(6-(trifluoromethyl)pyridin-3-yl)phenol hydrochloride]	–	–
0.111 µM	0.357 µM	CC(C)(C)NCc1cc(C(C)(C)C)cc(-c2cc(C(F)(F)F)ccn2)c1O [Example 28, 4-(tert-Butyl)-2-((tert-butylamino)methyl)-6-(4-(trifluoromethyl)pyridin-2-yl)phenol hydrochloride]	–	–
0.024 µM	0.046 µM	CC(C)(C)c1cc(CN2CCCCC2)c(O)c(-c2ccc(C(F)(F)F)nc2)c1 [Example 51, 4-(tert-Butyl)-2-(piperidin-1-ylmethyl)-6-(6-(trifluoromethyl)pyridin-3-yl)phenol hydrochloride]	–	–
4 µM	2.5 µM	CC(C)(C)NCc1cc(-c2ccc(S(C)(=O)=O)cc2)cc(-c2ccc(C(F)(F)F)nc2)c1O [Example 55, 3-((tert-Butylamino)methyl)-4′-(methylsulfonyl)-5-(6-(trifluoromethyl)pyridin-3-yl)-[1,1′-biphenyl]-4-ol hydrochloride]	–	–
0.031 µM	0.043 µM	CCN(CC)Cc1cc(C(C)(C)C)cc(-c2ccc(C(F)(F)F)nc2)c1O [Example 47, 4-(tert-Butyl)-2-((diethylamino)methyl)-6-(6-(trifluoromethyl)pyridin-3-yl)phenol hydrochloride]	–	–
0.011 µM	0.038 µM	CC(C)(C)NCc1cc(C(C)(C)C)cc(-c2cnc(C(F)(F)F)cn2)c1O [Example 32, 4-(tert-Butyl)-2-((tert-butylamino)methyl)-6-(5-(trifluoromethyl)pyrazin-2-yl)phenol hydrochloride]	–	–
5 µM	5 µM	CC(C)(C)NCc1cc(-c2cccnc2)cc(-c2cccnc2)c1O [Example 37, 2-((tert-Butylamino)methyl)-4,6-di(pyridin-3-yl)phenol]	–	–
0.023 µM	0.054 µM	CC(C)(C)NCc1cc(-c2ccc(Cl)cc2)nc(-c2ccc(C(F)(F)F)nc2)c1O [Example 74, 4-((tert-Butylamino)methyl)-6-(4-chlorophenyl)-6′-(trifluoromethyl)-[2,3′-bipyridin]-3-ol 1.1hydrochloride]	–	–
0.117 µM	0.104 µM	CC(C)(C)NCc1cc(C(C)(C)C)cc(-c2ccc(C(F)(F)F)nn2)c1O [Example 56, 4-(tert-Butyl)-2-((tert-butylamino)methyl)-6-(6-(trifluoromethyl)pyridazin-3-yl)phenol hydrochloride]	–	–
2.74 µM	1.86 µM	CC(NC(C)(C)C)c1cc(C(C)(C)C)cc(-c2ccc(C(F)(F)F)nc2)c1O (centres unmarked) [Example 73, 4-(tert-Butyl)-2-(1-(tert-butylamino)ethyl)-6-(6-(trifluoromethyl)pyridin-3-yl)phenol hydrochloride]	–	–
50.7 µM	93.1 µM	CC(C)(C)NCc1cc(C#N)cc(-c2ccc(C(F)(F)F)nc2)c1O [Example 71, 3-((tert-Butylamino)methyl)-4-hydroxy-5-(6-(trifluoromethyl)pyridin-3-yl)benzonitrile hydrochloride]	–	–
0.598 µM	1.33 µM	CC(C)(C)NCc1cc(C(C)(C)C)cc(-c2ccc(F)cn2)c1O [Example 26, 4-(tert-Butyl)-2-((tert-butylamino)methyl)-6-(5-fluoropyridin-2-yl)phenol 1.35hydrochloride]	–	–
0.042 µM	0.073 µM	CC(C)(C)NCc1cc(-c2ccc(Cl)c(C(F)(F)F)c2)cc(-c2ccc(C(F)(F)F)nc2)c1O [Example 39, 3-((tert-Butylamino)methyl)-4′-chloro-3′-(trifluoromethyl)-5-(6-(trifluoromethyl)pyridin-3-yl)-[1,1′-biphenyl]-4-ol hydrochloride]	–	–
0.005 µM	0.005 µM	CC(C)NCc1cc(C(C)(C)C)cc(-c2ccc(C(F)(F)F)nc2)c1O [Example 48, 4-(tert-Butyl)-2-((isopropylamino)methyl)-6-(6-(trifluoromethyl)pyridin-3-yl)phenol hydrochloride]	–	–
0.053 µM	0.1 µM	CC(C)(C)NCc1cc(-c2cccc(F)c2)cc(-c2ccc(C(F)(F)F)nc2)c1O [Example 67, 3-((tert-Butylamino)methyl)-3′-fluoro-5-(6-(trifluoromethyl)pyridin-3-yl)-[1,1′-biphenyl]-4-ol hydrochloride]	–	–

The remaining lines, values behind:

SMILES	IC50 [1, 3]	IC50 [2, 4]	IC50 ([1]; W2, read-out: W2 IC50)	IC50 ([2]; D6, read-out: D6 IC50)
CC(C)(C)NCCCNCc1cc(C(C)(C)C)cc(-c2ccc(C(F)(F)F)nc2)c1O [Example 60, 4-(tert-Butyl)-2-(((3-(tert-butylamino)propyl)amino)methyl)-6-(6-(trifluoromethyl)pyridin-3-yl)phenol dihydrochloride]	–	–	0.175 µM	0.134 µM
CC(C)(C)NCc1cc(C(C)(C)C)cc(-c2cccc3ncccc23)c1O [Example 4, 4-(tert-Butyl)-2-((tert-butylamino)methyl)-6-(quinolin-5-yl)phenol dihydrochloride]	–	–	0.2 µM	0.144 µM
CC(C)(C)NCc1cc(C(C)(C)C)cc(-c2ccnc3ccccc23)c1O [Example 8, 4-(tert-Butyl)-2-((tert-butylamino)methyl)-6-(quinolin-4-yl)phenol dihydrochloride]	–	–	0.094 µM	0.109 µM
CC(C)(C)NCc1cc(C(C)(C)C)cc(-c2ccncc2C(F)(F)F)c1O [Example 35, 4-(tert-Butyl)-2-((tert-butylamino)methyl)-6-(3-(trifluoromethyl)pyridin-4-yl)phenol dihydrochloride]	–	–	0.144 µM	0.549 µM
CC(C)(C)NCc1cc(C(C)(C)C)cc(-c2cnc3ccccc3c2)c1O [Example 3, 4-(tert-Butyl)-2-((tert-butylamino)methyl)-6-(quinolin-3-yl)phenol dihydrochloride]	–	–	0.022 µM	0.026 µM
Cc1ccc(-c2cc(C(C)(C)C)cc(CNC(C)(C)C)c2O)nc1 [Example 25, 4-(tert-Butyl)-2-((tert-butylamino)methyl)-6-(5-methylpyridin-2-yl)phenol dihydrochloride]	–	–	≥ 20 µM	≥ 20 µM
CC(C)(C)NCc1cc(C(C)(C)C)cc(-c2cncc(C(F)(F)F)c2)c1O [Example 18, 4-(tert-Butyl)-2-((tert-butylamino)methyl)-6-(5-(trifluoromethyl)pyridin-3-yl)phenol 1.4 hydrochloride]	0.012 µM	0.025 µM	–	–
COc1cncc(-c2cc(C(C)(C)C)cc(CNC(C)(C)C)c2O)c1 [Example 17, 4-(tert-Butyl)-2-((tert-butylamino)methyl)-6-(5-methoxypyridin-3-yl)phenol dihydrochloride]	–	–	0.025 µM	0.03 µM
Cc1ccc(-c2cc(C(C)(C)C)cc(CNC(C)(C)C)c2O)cn1 [Example 30, 4-(tert-Butyl)-2-((tert-butylamino)methyl)-6-(6-methylpyridin-3-yl)phenol dihydrochloride]	–	–	0.042 µM	0.067 µM
CC(C)(C)NCc1cc(C(C)(C)C)cc(-c2ccc(Cl)nc2)c1O [Example 23, 4-(tert-Butyl)-2-((tert-butylamino)methyl)-6-(6-chloropyridin-3-yl)phenol hydrochloride]	0.012 µM	0.019 µM	–	–
